Measurements taken from paper PMC3525752 (Bioorganic & medicinal chemistry, 2012).

How the values were obtained:
[1] = test system: IκB kinase β; settings: cited from earlier work
[2] = test system: Mtb H37Rv; assay: Minimum inhibitory concentration; settings: for fold drop/change in potency (MIC) relative to parent compound 1: versus lead 1
[3] = test system: Mtb; settings: in Mtb; cited from earlier work
[4] = test system: murine macrophage cell line J774.1; assay: Cytotoxicity by Alamar Blue, 3 days; type: cell-based; settings: J774.1 cells, two-fold dilutions starting at 60 µM

Molecule	fold drop/change in potency (MIC) relative to parent compound 1 [2]	also measured
O=C(Nc1cc(C(F)(F)F)cc(C(F)(F)F)c1)c1cc(Cl)ccc1O [Compound 1, N-(3,5-bis(trifluoromethyl)phenyl)-5-chloro-2-hydroxybenzamide]	–	inhibition of IκB kinase β [1]: potent inhibitor
O=C(Nc1cc(C(F)(F)F)cc(C(F)(F)F)c1)c1ccccc1O [Compound 2, N-(3,5-Bis(trifluoromethyl)phenyl)-2-hydroxybenzamide]	2–4 fold	–
O=C(Nc1cc(C(F)(F)F)cc(C(F)(F)F)c1)c1cc(F)ccc1O [Compound 7, N-(3,5-Bis(trifluoromethyl)phenyl)-5-fluoro-2-hydroxy-benzamide]	2 fold	–
O=C(Nc1cc(C(F)(F)F)cc(C(F)(F)F)c1)c1cc(Br)ccc1O [Compound 8, N-(3,5-Bis(trifluoromethyl)phenyl)-5-bromo-2-hydroxybenzamide]	2 fold	–
O=C(Nc1cc(C(F)(F)F)cc(C(F)(F)F)c1)c1cc(I)ccc1O [Compound 9, N-(3,5-Bis(trifluoromethyl)phenyl)-2-hydroxy-5-iodobenzamide]	2 fold	–
O=C(Nc1ccccc1)c1cc(Cl)ccc1O [Compound 26, 5-Chloro-2-hydroxy-N-phenylbenzamide]	4–8 fold	–
O=C(Nc1ccccc1C(F)(F)F)c1cc(Cl)ccc1O [Compound 28, 5-Chloro-2-hydroxy-N-(2-trifluoromethyl-phenyl)-benzamide]	–	fold loss in activity on moving single CF3 from meta to ortho ([2]; versus meta-CF3 compound 27): 4–8 fold
O=C(Nc1cccc(F)c1)c1cc(Cl)ccc1O [Compound 34, 5-Chloro-N-(3-fluorophenyl)-2-hydroxybenzamide]	2–4 fold	–
O=C(Nc1cccc(Br)c1)c1cc(Cl)ccc1O [Compound 35, N-(3-Bromophenyl)-5-chloro-2-hydroxybenzamide]	2–4 fold	–
O=C(Nc1ccc([N+](=O)[O-])cc1Cl)c1cc(Cl)ccc1O [niclosamide]	–	effect on membrane potential and pH homeostasis [3]: disruption of membrane potential and pH homeostasis
N-(3-Bromo-5-(trifluoromethyl)phenyl)-5-chloro-2-hydroxy-benzamide [Compound 74]	–	IC50 [4]: 5.8 µM
